“And” between values parts separate entries of the source, which are not always exact repeats. Equal entries are not always repeated. Inconclusive results and toxic doses are left out. Square brackets hold non-standard residues; d marks the D form. Peptide text beside a SMILES is read from it. ξ: configuration not given here. ξV = CC(C)C(N)C(=O)O
System: BDF1 mice, B16 melanoma ip, median survival T/C
Assay: NCI In Vivo Anticancer Drug Screen. Data for tumor model B16 Melanoma (intraperitoneal) in B6D2F1 (BDF1) mice
Conditions: endpoint: median survival time, higher = longer survival
Procedure, shortened: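 Read-out: survival or tumor size, given as treated/control ratio. Controls received vehicle only; animals bore transplantable tumors.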

[1] = dose: 6.25 mg/kg/injection, schedule: Q01DX009 (ip), vehicle: saline
[2] = dose: 12.5 mg/kg/injection, schedule: Q01DX009 (ip), vehicle: saline
[3] = dose: 25.0 mg/kg/injection, schedule: Q01DX009 (ip), vehicle: saline with Tween-80
[4] = dose: 50.0 mg/kg/injection, schedule: Q01DX009 (ip), vehicle: saline with Tween-80
[5] = dose: 100.0 mg/kg/injection, schedule: Q01DX009 (ip), vehicle: saline with Tween-80
[6] = dose: 200.0 mg/kg/injection, schedule: Q01DX009 (ip), vehicle: saline with Tween-80
[7] = dose: 12.5 mg/kg/injection, schedule: Q01DX009 (ip), vehicle: Klucel (hydroxypropylcellulose) (HPC)

Q: For `Nc1ccc(F)cc1[N+](=O)[O-]`, which T/C (dose: 75.0 mg/kg/injection, schedule: Q01DX009 (ip), vehicle: Klucel (hydroxypropylcellulose) (HPC)) is on record?
A: 122 % of control

Q: What about the T/C (dose: 150.0 mg/kg/injection, schedule: Q01DX009 (ip), vehicle: Klucel (hydroxypropylcellulose) (HPC)) of the same molecule?
A: 105 % of control

Q: And the T/C (dose: 300.0 mg/kg/injection, schedule: Q01DX009 (ip), vehicle: Klucel (hydroxypropylcellulose) (HPC))?
A: 102 % of control

Q: `CCCCCCCCCCCC(c1ccccc1)[N+](C)(C)C` (stereo not given) was tested. Which T/C (dose: 1.0 mg/kg/injection, schedule: Q01DX009 (ip), vehicle: saline sonified) did it give?
A: 105 % of control

Q: What about the T/C (dose: 2.0 mg/kg/injection, schedule: Q01DX009 (ip), vehicle: saline sonified) of the same molecule?
A: 110 % of control

Q: What about the T/C (dose: 4.0 mg/kg/injection, schedule: Q01DX009 (ip), vehicle: saline sonified) of the same molecule?
A: 105 % of control

Q: And the T/C (dose: 8.0 mg/kg/injection, schedule: Q01DX009 (ip), vehicle: saline sonified)?
A: 100 % of control

Q: What does the source list for `O=C(O)C1OC1C(=O)O` (stereo not given)?
A: T/C (dose: 75.0 mg/kg/injection, schedule: Q01DX009 (ip), vehicle: saline): 120 % of control; T/C (dose: 300.0 mg/kg/injection, schedule: Q01DX009 (ip), vehicle: saline): 118 % of control

Q: Which T/C (dose: 18.75 mg/kg/injection, schedule: Q01DX009 (ip), vehicle: Klucel (hydroxypropylcellulose) (HPC)) does the source give for `CN(C)N=Nc1c(Cl)cccc1Cl` here?
A: 101 % of control

Q: And the T/C (dose: 37.5 mg/kg/injection, schedule: Q01DX009 (ip), vehicle: Klucel (hydroxypropylcellulose) (HPC))?
A: 105 % of control

Q: How did the T/C (dose: 3.0 mg/kg/injection, schedule: Q04DX003 (ip), vehicle: Klucel (hydroxypropylcellulose) (HPC)) turn out when `[N-]=C(CC(=O)c1ccccc1)c1ccccc1.[N-]=C(CC(=O)c1ccccc1)c1ccccc1.[Ni+2]` was run?
A: 86 % of control

Q: What about the T/C (dose: 6.0 mg/kg/injection, schedule: Q04DX003 (ip), vehicle: Klucel (hydroxypropylcellulose) (HPC)) of the same molecule?
A: 93 % of control

Q: And the T/C (dose: 12.0 mg/kg/injection, schedule: Q04DX003 (ip), vehicle: Klucel (hydroxypropylcellulose) (HPC))?
A: 88 % of control

Q: What does the source list for `CCCCCC(O)C1C(=O)OC(C)C(O)/C=C/C=C/C=C/C=C\C=C(\C)C(O)CC(O)CC(O)CC(O)CC(O)CC(O)CC1O` (stereo not given)?
A: T/C (dose: 2.5 mg/kg/injection, schedule: Q01DX009 (ip), vehicle: saline): 120 % of control; T/C (dose: 5.0 mg/kg/injection, schedule: Q01DX009 (ip), vehicle: saline): 97 % of control; T/C (dose: 10.0 mg/kg/injection, schedule: Q01DX009 (ip), vehicle: saline): 88 % of control

Q: `C=CC(=O)[O][Pb]([CH3])([CH3])[CH3]` was tested. Which T/C (dose: 0.75 mg/kg/injection, schedule: Q01DX009 (ip), vehicle: saline with Tween-80) did it give?
A: 94 % of control

Q: And the T/C (dose: 1.5 mg/kg/injection, schedule: Q01DX009 (ip), vehicle: saline with Tween-80)?
A: 95 % of control

Q: How did the T/C (dose: 100.0 mg/kg/injection, schedule: Q01DX009 (ip), vehicle: saline) turn out when `CC(C)C(NC(=O)CNC(=O)CN)C(=O)O` (stereo not drawn) (H-Gly-Gly-[ξV]-OH) was run?
A: 95 % of control

Q: And the T/C (dose: 100.0 mg/kg/injection, schedule: Q04DX003 (ip), vehicle: saline)?
A: 100 % of control

Q: And the T/C (dose: 200.0 mg/kg/injection, schedule: Q01DX009 (ip), vehicle: saline)?
A: 97 % of control

Q: And the T/C (dose: 200.0 mg/kg/injection, schedule: Q04DX003 (ip), vehicle: saline)?
A: 97 % of control

Q: And the T/C (dose: 400.0 mg/kg/injection, schedule: Q01DX009 (ip), vehicle: saline)?
A: 95 % of control

Q: What about the T/C (dose: 400.0 mg/kg/injection, schedule: Q04DX003 (ip), vehicle: saline) of the same molecule?
A: 95 % of control

Q: For `CN(C)CC/C=C1/c2ccccc2COc2ccccc21`, which T/C (dose: 3.12 mg/kg/injection, schedule: Q01DX009 (ip), vehicle: saline) is on record?
A: 112 % of control

Q: And the T/C [1]?
A: 102 % of control

Q: What about the T/C [2] of the same molecule?
A: 105 % of control

Q: What about the T/C (dose: 25.0 mg/kg/injection, schedule: Q01DX009 (ip), vehicle: saline) of the same molecule?
A: 112 % of control

Q: And the T/C (dose: 50.0 mg/kg/injection, schedule: Q01DX009 (ip), vehicle: saline)?
A: 105 % of control

Q: Which T/C (dose: 0.78 mg/kg/injection, schedule: Q01DX009 (ip), vehicle: saline) does the source give for `ClC1CCC[N-]C1.ClC1CCC[N-]C1.[Cl][Pt+2][Cl]` (stereo not given) here?
A: 100 % of control

Q: And the T/C (dose: 1.56 mg/kg/injection, schedule: Q01DX009 (ip), vehicle: saline)?
A: 95 % of control

Q: And the T/C (dose: 3.13 mg/kg/injection, schedule: Q01DX009 (ip), vehicle: saline)?
A: 96 % of control

Q: What about the T/C [1] of the same molecule?
A: 100 % of control

Q: What about the T/C [2] of the same molecule?
A: 95 % of control

Q: For `C=C1C(=O)OC2CC(C)C3C4OC4C(O)C3(C)C(O)C12` (stereo not given), which T/C (dose: 9.38 mg/kg/injection, schedule: Q01DX009 (ip), vehicle: saline) is on record?
A: 94 % of control

Q: And the T/C (dose: 18.75 mg/kg/injection, schedule: Q01DX009 (ip), vehicle: saline)?
A: 94 % of control

Q: What about the T/C (dose: 37.5 mg/kg/injection, schedule: Q01DX009 (ip), vehicle: saline) of the same molecule?
A: 103 % of control

Q: `CC1C=NNC1=O` (stereo not given) was tested. Which T/C [3] did it give?
A: 90 % of control

Q: What about the T/C [4] of the same molecule?
A: 90 % of control

Q: And the T/C [5]?
A: 95 % of control

Q: What about the T/C (dose: 100.0 mg/kg/injection, schedule: Q04DX003 (ip), vehicle: other) of the same molecule?
A: 105 % of control

Q: What about the T/C (dose: 125.0 mg/kg/injection, schedule: Q01DX009 (ip), vehicle: other) of the same molecule?
A: 105 % of control

Q: What about the T/C (dose: 125.0 mg/kg/injection, schedule: Q04DX003 (ip), vehicle: other) of the same molecule?
A: 100 % of control

Q: What about the T/C [6] of the same molecule?
A: 90 % of control

Q: And the T/C (dose: 200.0 mg/kg/injection, schedule: Q04DX003 (ip), vehicle: other)?
A: 95 % of control

Q: What about the T/C (dose: 250.0 mg/kg/injection, schedule: Q01DX009 (ip), vehicle: other) of the same molecule?
A: 100 % of control

Q: And the T/C (dose: 250.0 mg/kg/injection, schedule: Q04DX003 (ip), vehicle: other)?
A: 100 % of control

Q: And the T/C (dose: 266.0 mg/kg/injection, schedule: Q04DX003 (ip), vehicle: saline with Tween-80)?
A: 197 % of control

Q: And the T/C (dose: 400.0 mg/kg/injection, schedule: Q01DX009 (ip), vehicle: saline with Tween-80)?
A: 116 % of control

Q: What about the T/C (dose: 400.0 mg/kg/injection, schedule: Q04DX003 (ip), vehicle: other) of the same molecule?
A: 92 % of control

Q: What about the T/C (dose: 400.0 mg/kg/injection, schedule: Q04DX003 (ip), vehicle: saline with Tween-80) of the same molecule?
A: 200 % of control

Q: What about the T/C (dose: 500.0 mg/kg/injection, schedule: Q01DX009 (ip), vehicle: other) of the same molecule?
A: 111 % of control

Q: What about the T/C (dose: 500.0 mg/kg/injection, schedule: Q04DX003 (ip), vehicle: other) of the same molecule?
A: 102 % of control

Q: And the T/C (dose: 600.0 mg/kg/injection, schedule: Q04DX003 (ip), vehicle: saline with Tween-80)?
A: 183 % of control

Q: Which T/C (dose: 2.5 mg/kg/injection, schedule: Q01DX009 (ip), vehicle: Klucel (hydroxypropylcellulose) (HPC)) does the source give for `CC1OC(n2ccc(NC(=O)c3ccc(NC(=O)C(C)(N)CO)cc3)nc2=O)CC(O)C1OC1OC(C)C(N(C)C)C(O)C1O` (stereo not given) here?
A: 117 % of control

Q: What about the T/C (dose: 5.0 mg/kg/injection, schedule: Q01DX009 (ip), vehicle: Klucel (hydroxypropylcellulose) (HPC)) of the same molecule?
A: 102 % of control

Q: What about the T/C (dose: 10.0 mg/kg/injection, schedule: Q01DX009 (ip), vehicle: Klucel (hydroxypropylcellulose) (HPC)) of the same molecule?
A: 103 % of control

Q: For `O=S1(=O)CC(Cl)C(Cl)C1` (stereo not given), which T/C (dose: 3.12 mg/kg/injection, schedule: Q01DX009 (ip), vehicle: Klucel (hydroxypropylcellulose) (HPC)) is on record?
A: 91 % of control

Q: And the T/C [7]?
A: 96 % of control

Q: `CCc1nc(N)nc(N)c1-c1ccc(Cl)c(Cl)c1.[Cl][Pd][Cl]` was tested. Which T/C [1] did it give?
A: 97 % of control

Q: Which T/C (dose: 6.25 mg/kg/injection, schedule: Q01DX009 (ip), vehicle: saline with Tween-80) does the source give for `OCCOCC(F)(F)F` here?
A: 94 % of control and 112 % of control

Q: And the T/C (dose: 12.5 mg/kg/injection, schedule: Q01DX009 (ip), vehicle: saline with Tween-80)?
A: 99 % of control and 104 % of control

Q: And the T/C [3]?
A: 97 % of control and 103 % of control

Q: And the T/C [4]?
A: 92 % of control and 105 % of control

Q: What about the T/C (dose: 75.0 mg/kg/injection, schedule: Q01DX009 (ip), vehicle: saline with Tween-80) of the same molecule?
A: 93 % of control

Q: What about the T/C [5] of the same molecule?
A: 102 % of control and 103 % of control

Q: And the T/C (dose: 150.0 mg/kg/injection, schedule: Q01DX009 (ip), vehicle: saline with Tween-80)?
A: 88 % of control

Q: And the T/C [6]?
A: 94 % of control and 105 % of control

Q: `COc1cc2cnccc2cc1O` was tested. Which T/C (dose: 12.5 mg/kg/injection, schedule: Q01DX009 (ip), vehicle: water) did it give?
A: 104 % of control

Q: And the T/C (dose: 25.0 mg/kg/injection, schedule: Q01DX009 (ip), vehicle: water)?
A: 102 % of control

Q: And the T/C (dose: 50.0 mg/kg/injection, schedule: Q01DX009 (ip), vehicle: water)?
A: 103 % of control

Q: And the T/C (dose: 100.0 mg/kg/injection, schedule: Q01DX009 (ip), vehicle: water)?
A: 109 % of control

Q: Which results are given for `O=C1C(=O)c2ccccc2C(O)=C1CCCc1ccc(C2CCCCC2)cc1`?
A: T/C [3]: 104 % of control; T/C [6]: 88 % of control

Q: What does the source list for `COC(=O)c1ccc(-c2ccccc2)cc1`?
A: T/C [7]: 93 % of control; T/C (dose: 25.0 mg/kg/injection, schedule: Q01DX009 (ip), vehicle: Klucel (hydroxypropylcellulose) (HPC)): 88 % of control; T/C (dose: 50.0 mg/kg/injection, schedule: Q01DX009 (ip), vehicle: Klucel (hydroxypropylcellulose) (HPC)): 97 % of control; T/C (dose: 100.0 mg/kg/injection, schedule: Q01DX009 (ip), vehicle: Klucel (hydroxypropylcellulose) (HPC)): 93 % of control

Q: With `COc1cc2cc3c4cc(OC)c(OC)cc4cc[n+]3c(C)c2cc1OC` as the molecule, how does the T/C (dose: 400.0 mg/kg/injection, schedule: Q01DX009 (ip), vehicle: saline sonified) read?
A: 86 % of control
